The record followed here is US20260297042A1, “BIARYLAMIDE DERIVATIVES AND THEIR USE AS PKMYT1 INHIBITORS” (CANCER RESEARCH TECHNOLOGY LIMITED, priority 2023, published 2026).

Broadly, the IC50 is the concentration that gives 50% inhibition. Read a high IC50 as lower potency.

In assay [1] the test system is KYSE-30 cells. Nature of the assay: Cancer cell line proliferation assay, ATP-based cell viability (Cell Titre Glow), KYSE-30 (normal CCNE1). Particulars: Homo sapiens, KYSE-30 cells (normal CCNE1), concentration that achieves 50% cell growth proliferation inhibition, read-out: KYSE30 Gl50. The essentials:
(§1)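 Cells were treated with PKMYT1 inhibitors, then proliferation was assessed with CellTiter-Glo and luminescence read. GI50 values were fitted from the resulting data.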

The target in assay [2] is T1, WEE1 (Homo sapiens, UniProt P30291).
T1 construct: purchased Thermo Fisher PR7373A
T1 sequence (P30291 whole entry): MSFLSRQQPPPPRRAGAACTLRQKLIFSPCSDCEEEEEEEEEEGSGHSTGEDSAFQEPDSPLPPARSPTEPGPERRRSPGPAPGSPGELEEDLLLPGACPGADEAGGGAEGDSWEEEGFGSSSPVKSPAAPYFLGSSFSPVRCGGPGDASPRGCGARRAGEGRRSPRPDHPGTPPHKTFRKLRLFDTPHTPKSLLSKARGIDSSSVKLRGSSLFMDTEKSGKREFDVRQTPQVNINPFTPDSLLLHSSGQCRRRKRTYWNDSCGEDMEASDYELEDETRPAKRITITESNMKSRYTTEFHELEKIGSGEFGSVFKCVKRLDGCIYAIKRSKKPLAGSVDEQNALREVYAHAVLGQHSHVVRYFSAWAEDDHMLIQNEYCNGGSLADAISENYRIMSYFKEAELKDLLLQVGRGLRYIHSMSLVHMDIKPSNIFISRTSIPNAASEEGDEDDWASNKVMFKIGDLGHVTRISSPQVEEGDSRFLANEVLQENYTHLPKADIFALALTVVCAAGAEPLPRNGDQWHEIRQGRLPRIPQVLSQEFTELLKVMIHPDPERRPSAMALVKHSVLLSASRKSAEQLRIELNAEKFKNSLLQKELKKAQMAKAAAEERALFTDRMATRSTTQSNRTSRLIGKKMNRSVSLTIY
Kind of assay: Selectivity versus WEE1 assay (ADP-Glo enzymatic assay). The note with it: banded. The format is biochemical. A digest of the protocol:
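Inhibition is measured as reduced ADP production, detected by luminescence with ADP-Glo, after enzyme (15 nM) and 30 µM ATP react for 60 min at 26° C in 1% DMSO-containing HEPES buffer, pH 7.5. Data are accepted only if replicate IC50s fall within 3-fold and r2 exceeds 0.9.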
(ADP-Glo first removes unused ATP, then detects ADP through luciferase.)

Assay [3] relates to OVCAR 3 cells. Kind of assay: Cancer cell line proliferation assay, ATP-based cell viability (Cell Titre Glow), OVCAR 3 (CCNE1-amplified). The note with it: KYSE30 (normal CCNE1) GI50 vs. OVCAR 3 (CCNE1-amplified) GI50. The essentials: as §1
Assay [4] deals with OVCAR3 cells. Kind of assay: Cancer cell line proliferation assay, nuclear count, OVCAR3 (CCNE1-amplified). The format is cell-based. The note with it: banded. As for the experimental part:
h-TERT-RPE1 TP53−/− and CCNE1 high expressing clones (clone cell lines 7 and 15) were treated with test compounds dissolved in DMSO at serially diluted concentrations alongside a DMSO only control for around 6 population doublings time. Cells were then fixed with 4% Paraformaldehyde and the cell nuclei were stained with DAPI (Sigma D9542). Images covering each well were acquired by an Opera Phenix® High-Content Screening System (PerkinElmer). Image analysis was performed using Harmony® high-content analysis software (PerkinElmer). Data analysis was performed using Microsoft Excel® and GI50 estimates generated with GraphPad Prism v9. Percent nuclear count was compared to vehicle control wells and used to measure inhibition of proliferation.
Cancer cell lines with either normal (KYSE-30) or amplified CCNE1 expression (OVCAR3-ovarian cancer) were evaluated for their sensitivity to PKMYT1 inhibitors in a nuclear count assay as described above for h-TERT-RPE1 TP53−/− and a CCNE1 high expressing clones, taking into account the slower cell cycle division times of these lines.

In the case of `CCN(CC)C(=O)Cn1cc(C)c(Nc2ncc(C(=O)Nc3c(C)ccc(O)c3C)s2)n1` [BAA-207, 2-[[1-[2-(diethylamino)-2-oxo-ethyl]-4-methyl-pyrazol-3-yl]amino]-N-(3-hydroxy-2,6-dimethyl-phenyl)thiazole-5-carboxamide], the GI50 was more than 5000 nM in assay [1] and less than 500 nM in assay [4] (Homo sapiens, OVCAR-3, CCNE1-amplified ovarian cancer, nuclear count). Also, the IC50 in assay [2] (ADP-Glo, 15 nM WEE1, 60 minutes at 26° C.) was in the range of 1000 to 11000 nM. In addition, the “PKMYT1 vs. WEE1 selectivity” value in assay [2] (fold difference in selectivity for PKMYT1 over WEE1, ">N" = at least in this band but could be higher) was “X (100-<1000 fold)”. Further, the “Selectivity ratio KYSE30 Gl50 vs. OVCAR3 Gl50” value in assay [3] is “Y (>20 fold)”. Besides, the “Selectivity ratio KYSE30 GI50 vs. OVCAR3 GI50” value in assay [4] (GI50 ratio KYSE30 vs. OVCAR3, >N = at least in this band) was “Z (>30 fold)”.
